# Test results: patent US8927717B1, “Thiochromeno[2,3-c]quinolin-12-one derivatives, preparation method and application thereof” (National Defense Medical Center, priority 2014, dated 2015)
# Key:
# Type in all cases: cell-based
# [1] = tested on: SF-295; settings: SF-295
# [2] = tested on: M14; settings: M14
# [3] = tested on: 786-0; settings: 786-0
# [4] = tested on: MALME-3M; settings: MALME-3M
# [5] = tested on: OVCAR-8; settings: OVCAR-8
# [6] = tested on: RXF 393; settings: RXF 393; 10^−5 molar
# [7] = tested on: PC-3; settings: PC-3
# [8] = tested on: UO-31; settings: UO-31
# [9] = tested on: MDA-MB-231/ATCC; settings: MDA-MB-231/ATCC
# [10] = tested on: U251; settings: U251, five dose
# [11] = tested on: CCRF-CEM; settings: CCRF-CEM
# [12] = tested on: ACHN; settings: ACHN
# [13] = tested on: MCF7; settings: MCF7
# [14] = tested on: SNB-19; settings: SNB-19
# [15] = tested on: LOX IMVI; settings: LOX IMVI, five dose
# [16] = tested on: TK-10; settings: TK-10
# [17] = tested on: KM12; assay: cells; settings: KM12
# [18] = tested on: OVCAR-5; settings: OVCAR-5
# [19] = tested on: SK-MEL-5; settings: SK-MEL-5
# [20] = tested on: HT29; settings: HT29
# [21] = tested on: MDA-MB-486; settings: MDA-MB-486
# [22] = tested on: K-562; settings: K-562
# [23] = tested on: RPMI-8226; settings: RPMI-8226
# [24] = tested on: UACC-62; settings: UACC-62
# [25] = tested on: T-47D; settings: T-47D
# [26] = tested on: 60 cancer cell lines; assay: NCI 60-cell screen, SRB, whole panel (mean, delta, range)
# [27] = tested on: NCI-H460; settings: NCI-H460
# [28] = tested on: SN12C; settings: SN12C
# [29] = tested on: SF-268; settings: SF-268
# [30] = tested on: DU-145; settings: DU-145
# [31] = tested on: NCI-H522; settings: NCI-H522
# [32] = tested on: NCI-H23; settings: NCI-H23
# [33] = tested on: HS 578T; settings: HS 578T
# [34] = tested on: SW-620; settings: SW-620
# [35] = tested on: HL-60(TB); settings: HL-60(TB); 10^−5 molar
# [36] = tested on: COLO 205; settings: COLO 205
# [37] = tested on: SK-MEL-28; settings: SK-MEL-28
# [38] = tested on: SNB-75; settings: SNB-75
# [39] = tested on: NCI/ADR-RES; settings: NCI/ADR-RES
# [40] = Homo sapiens, five dose, read-out: LC50 (the source's name)
structure (smiles),measurement,setting,value
"O=c1c2cc(Cl)ccc2sc2c(NCc3ccccc3)nc3ccccc3c12 [Compound N25, 6-(Benzylamino)-10-chloro-12H-thiochromeno[2,3-c]quinolin-12-one]",GI50,"[1]; Homo sapiens, five dose",3.5 µM
same,LC50,"[1]; Homo sapiens, five dose",> 100 µM
same,Growth percent,[1]; 10^−5 molar,74.33%
same,TGI,[1]; five dose,16.50 µM
same,GI50,"[2]; Homo sapiens, five dose",> 100 µM
same,LC50,"[2]; Homo sapiens, five dose",> 100 µM
same,Growth percent,[2]; 10^−5 molar,87.29%
same,TGI,[2]; five dose,>100 µM
same,Growth percent,[3]; 10^−5 molar,72.48%
same,TGI,[3]; five dose,48.70 µM
same,GI50,"[3]; Homo sapiens, five dose",9.55 µM
same,CC50,[3]; [40],> 100 µM
same,GI50,"[4]; Homo sapiens, five dose",> 100 µM
same,LC50,"[4]; Homo sapiens, five dose",> 100 µM
same,Growth percent,[4]; 10^−5 molar,77.59%
same,TGI,[4]; five dose,>100 µM
same,GI50,"[5]; Homo sapiens, five dose",7.75 µM
same,CC50,[5]; [40],> 100 µM
same,Growth percent,[5]; 10^−5 molar,68.33%
same,TGI,[5]; five dose,>100 µM
same,Growth percent,[6],71.08%
same,GI50,"[7]; Homo sapiens, five dose",56.9 µM
same,CC50,[7]; [40],> 100 µM
same,Growth percent,[7]; 10^−5 molar,72.70%
same,TGI,[7]; five dose,>100 µM
same,GI50,"[8]; Homo sapiens, five dose",57.8 µM
same,CC50,[8]; [40],> 100 µM
same,Growth percent,[8]; 10^−5 molar,65.31%
same,TGI,[8]; five dose,>100 µM
same,GI50,"[9]; Homo sapiens, five dose",2.36 µM
same,CC50,[9]; [40],> 100 µM
same,Growth percent,[9]; 10^−5 molar,32.67%
same,TGI,[9]; five dose,34.80 µM
same,GI50,"[10]; Homo sapiens, U-251",4.41 µM
same,LC50,"[10]; Homo sapiens, U-251",> 100 µM
same,TGI,[10],25.10 µM
same,Growth percent,[11]; 10^−5 molar,102.34%
same,TGI,[11]; five dose,>100 µM
same,GI50,"[11]; Homo sapiens, five dose",> 100 µM
same,CC50,[11]; [40],> 100 µM
same,Growth percent,[12]; 10^−5 molar,51.82%
same,TGI,[12]; five dose,>100 µM
same,GI50,"[12]; Homo sapiens, five dose",4.02 µM
same,CC50,[12]; [40],> 100 µM
same,GI50,"[13]; Homo sapiens, five dose",0.04 µM
same,CC50,[13]; [40],> 100 µM
same,Growth percent,[13]; 10^−5 molar,16.01%
same,TGI,[13]; five dose,18.60 µM
same,GI50,"[14]; Homo sapiens, five dose",8.56 µM
same,LC50 (concentration killing 50% of cells),"[14]; Homo sapiens, five dose",> 100 µM
same,Growth percent,[14]; 10^−5 molar,102.93%
same,TGI,[14]; five dose,>100 µM
same,GI50,[15]; Homo sapiens,> 100 µM
same,LC50,[15]; Homo sapiens,> 100 µM
same,TGI,[15],>100 µM
same,GI50,"[16]; Homo sapiens, five dose",5.02 µM
same,CC50,[16]; [40],> 100 µM
same,Growth percent,[16]; 10^−5 molar,75.80%
same,TGI,[16]; five dose,22.30 µM
same,GI50,"[17]; Homo sapiens, five dose",48.3 µM
same,LC50,"[17]; Homo sapiens, five dose",> 100 µM
same,Growth percent,[17]; 10^−5 molar,80.34%
same,TGI,[17]; five dose,>100 µM
same,GI50,"[18]; Homo sapiens, five dose",> 100 µM
same,CC50,[18]; [40],> 100 µM
same,Growth percent,[18]; 10^−5 molar,91.27%
same,TGI,[18]; five dose,>100 µM
same,GI50,"[19]; Homo sapiens, five dose",4.23 µM
same,LC50,"[19]; Homo sapiens, five dose",> 100 µM
same,Growth percent,[19]; 10^−5 molar,92.81%
same,TGI,[19]; five dose,>100 µM
same,Growth percent,[20]; 10^−5 molar,77.16%
same,TGI,[20]; five dose,>100 µM
same,LC50 (concentration killing 50% of cells),"[20]; Homo sapiens, HT-29, five dose",> 100 µM
same,GI50,"[21]; 60 cell, five dose",0.03 µM
same,CC50,"[21]; 60 cell, five dose, read-out: LC50 (the source's name)",63.1 µM
same,Growth percent,[21]; 10^−5 molar,−9.83%
same,TGI,[21]; five dose,0.66 µM
same,GI50,"[22]; Homo sapiens, K562, five dose",> 100 µM
same,CC50,"[22]; Homo sapiens, K562, five dose, read-out: LC50 (the source's name)",> 100 µM
same,Growth percent,[22]; 10^−5 molar,90.61%
same,TGI,[22]; five dose,>100 µM
same,GI50,"[23]; Homo sapiens, five dose",> 100 µM
same,CC50,[23]; [40],> 100 µM
same,Growth percent,[23]; 10^−5 molar,88.54%
same,TGI,[23]; five dose,>100 µM
same,GI50,"[24]; Homo sapiens, five dose",16.9 µM
same,CC50,[24]; [40],> 100 µM
same,Growth percent,[24]; 10^−5 molar,89.20%
same,TGI,[24]; five dose,>100 µM
same,GI50,"[25]; Homo sapiens, T47D, five dose",1.26 µM
same,CC50,"[25]; Homo sapiens, T47D, five dose, read-out: LC50 (the source's name)",> 100 µM
same,Growth percent,[25]; 10^−5 molar,38.08%
same,TGI,[25]; five dose,7.11 µM
same,GI50,"[26]; 60 cell, mean over panel, five dose",11.2 µM
same,CC50,"[26]; 60 cell, mean over panel, five dose, read-out: LC50, Mean",91.2 µM
same,"Growth percent, Delta","[26]; delta over panel, 10^−5 molar",81.80%
same,"Growth percent, Mean","[26]; mean over panel, 10^−5 molar",71.97%
same,"TGI, Mean","[26]; mean over panel, five dose",53.70 µM
same,"Growth percent, Range","[26]; range over panel, 10^−5 molar",112.76%
same,GI50,"[27]; Homo sapiens, five dose",5 µM
same,LC50,"[27]; Homo sapiens, five dose",> 100 µM
same,Growth percent,[27]; 10^−5 molar,64.41%
same,TGI,[27]; five dose,>100 µM
same,GI50,"[28]; Homo sapiens, five dose",24.9 µM
same,CC50,[28]; [40],> 100 µM
same,Growth percent,[28]; 10^−5 molar,87.80%
same,TGI,[28]; five dose,>100 µM
same,GI50,"[29]; Homo sapiens, five dose",13.8 µM
same,CC50,[29]; [40],> 100 µM
same,Growth percent,[29]; 10^−5 molar,73.68%
same,TGI,[29]; five dose,>100 µM
same,Growth percent,[30]; 10^−5 molar,74.80%
same,TGI,[30]; five dose,>100 µM
same,GI50,"[30]; Homo sapiens, five dose",5.5 µM
same,CC50,[30]; [40],> 100 µM
same,GI50,"[31]; Homo sapiens, five dose",25.3 µM
same,LC50 (concentration causing 50% net cell kill),"[31]; Homo sapiens, five dose",> 100 µM
same,Growth percent,[31]; 10^−5 molar,75.71%
same,TGI,[31]; five dose,>100 µM
same,GI50,"[32]; Homo sapiens, five dose",15.2 µM
same,LC50 (lethal concentration 50%),"[32]; Homo sapiens, five dose",> 100 µM
same,Growth percent,[32]; 10^−5 molar,74.37%
same,TGI,[32]; five dose,>100 µM
same,Growth percent,[33]; 10^−5 molar,34.73%
same,TGI,[33]; five dose,21.20 µM
same,GI50,"[33]; Homo sapiens, five dose",2.94 µM
same,CC50,[33]; [40],> 100 µM
same,LC50,"[34]; Homo sapiens, five dose",> 100 µM
same,Growth percent,[34]; 10^−5 molar,78.97%
same,TGI,[34]; five dose,>100 µM
same,Growth percent,[35],98.82%
same,Growth percent,[36]; 10^−5 molar,80.79%
same,TGI,[36]; five dose,>100 µM
same,LC50,"[36]; Homo sapiens, five dose",> 100 µM
same,LC50,"[37]; Homo sapiens, five dose",> 100 µM
same,Growth percent,[37]; 10^−5 molar,84.20%
same,TGI,[37]; five dose,>100 µM
same,GI50,"[38]; Homo sapiens, five dose",1.45 µM
same,LC50,"[38]; Homo sapiens, five dose",9.91 µM
same,Growth percent,[38]; 10^−5 molar,14.83%
same,TGI,[38]; five dose,3.78 µM
same,GI50,"[39]; Homo sapiens, five dose",43 µM
same,CC50,[39]; [40],> 100 µM
same,Growth percent,[39]; 10^−5 molar,77.36%
same,TGI,[39]; five dose,>100 µM
